By melting point is commonly meant the temperature of the solid-liquid transition. One may read the Kd as a measure of binding affinity in units of concentration. One may read the IC50 as the point on the concentration scale where inhibition reaches its midpoint.

Experimental findings from patent US10526316B2, “Quinoxaline and pyridopyrazine derivatives as PI3Kβ inhibitors” (Janssen Pharmaceutica NV, priority 2015, dated 2020) are described below.

Where a name gives a salt, the structure may show the parent alone.

One series concerns the target T1, PI3Kβ (Homo sapiens, UniProt P42338).
T1 construct: purchased DiscoveRx Corporation, San Diego (contract service, KINOMEscan)
Put plainly: Enzyme binding assay (KINOMEscan, DiscoveRx). Conditions: PIK3Cβ_h, read-out: Kd PIK3Cβ_h. The procedure, abridged:
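Values are Kd in nM, the binding constant of each inhibitor for the kinase, obtained from a KINOMEscan enzyme binding assay.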

Another series deals with T2, PI3Kδ (Homo sapiens, UniProt O00329).
T2 construct: purchased DiscoveRx Corporation, San Diego (contract service, KINOMEscan)
T2 sequence (O00329 1-1044): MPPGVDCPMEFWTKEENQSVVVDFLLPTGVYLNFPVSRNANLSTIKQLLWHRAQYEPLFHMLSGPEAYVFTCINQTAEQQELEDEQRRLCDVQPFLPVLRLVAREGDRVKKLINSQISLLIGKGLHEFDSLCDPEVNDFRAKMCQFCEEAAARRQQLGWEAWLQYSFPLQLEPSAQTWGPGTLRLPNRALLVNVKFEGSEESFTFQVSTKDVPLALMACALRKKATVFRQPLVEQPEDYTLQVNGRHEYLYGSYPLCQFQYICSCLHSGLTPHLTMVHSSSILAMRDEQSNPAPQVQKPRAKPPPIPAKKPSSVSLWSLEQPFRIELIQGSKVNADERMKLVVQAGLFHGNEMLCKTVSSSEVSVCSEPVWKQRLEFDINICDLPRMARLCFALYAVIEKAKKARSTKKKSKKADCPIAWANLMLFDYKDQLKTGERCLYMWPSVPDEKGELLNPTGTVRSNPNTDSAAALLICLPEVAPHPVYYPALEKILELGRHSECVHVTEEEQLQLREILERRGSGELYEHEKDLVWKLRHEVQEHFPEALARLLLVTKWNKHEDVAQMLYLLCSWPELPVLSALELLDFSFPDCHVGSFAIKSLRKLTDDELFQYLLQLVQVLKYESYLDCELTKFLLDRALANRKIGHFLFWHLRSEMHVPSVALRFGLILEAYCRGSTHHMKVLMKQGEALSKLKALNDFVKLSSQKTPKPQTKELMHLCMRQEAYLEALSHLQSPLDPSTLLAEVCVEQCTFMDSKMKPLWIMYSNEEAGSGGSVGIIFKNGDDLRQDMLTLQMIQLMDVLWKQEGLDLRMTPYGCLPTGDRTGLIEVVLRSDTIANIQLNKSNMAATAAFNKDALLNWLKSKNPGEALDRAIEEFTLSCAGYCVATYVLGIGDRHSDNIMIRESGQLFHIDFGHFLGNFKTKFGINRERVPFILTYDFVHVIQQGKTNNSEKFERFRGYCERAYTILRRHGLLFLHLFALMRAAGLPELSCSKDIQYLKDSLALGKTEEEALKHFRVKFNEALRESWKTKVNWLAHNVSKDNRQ
Put plainly: Enzyme binding assay (KINOMEscan, DiscoveRx). Conditions: PIK3Cδ_h. A digest of the protocol: (§1)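 Affinity for each kinase was determined by KINOMEscan profiling.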

The target of series [1] is T3, kinase enzymes (Homo sapiens, UniProt P42336).
T3 construct: purchased DiscoveRx Corporation, San Diego (contract service, KINOMEscan)
T3 sequence (P42336 whole entry): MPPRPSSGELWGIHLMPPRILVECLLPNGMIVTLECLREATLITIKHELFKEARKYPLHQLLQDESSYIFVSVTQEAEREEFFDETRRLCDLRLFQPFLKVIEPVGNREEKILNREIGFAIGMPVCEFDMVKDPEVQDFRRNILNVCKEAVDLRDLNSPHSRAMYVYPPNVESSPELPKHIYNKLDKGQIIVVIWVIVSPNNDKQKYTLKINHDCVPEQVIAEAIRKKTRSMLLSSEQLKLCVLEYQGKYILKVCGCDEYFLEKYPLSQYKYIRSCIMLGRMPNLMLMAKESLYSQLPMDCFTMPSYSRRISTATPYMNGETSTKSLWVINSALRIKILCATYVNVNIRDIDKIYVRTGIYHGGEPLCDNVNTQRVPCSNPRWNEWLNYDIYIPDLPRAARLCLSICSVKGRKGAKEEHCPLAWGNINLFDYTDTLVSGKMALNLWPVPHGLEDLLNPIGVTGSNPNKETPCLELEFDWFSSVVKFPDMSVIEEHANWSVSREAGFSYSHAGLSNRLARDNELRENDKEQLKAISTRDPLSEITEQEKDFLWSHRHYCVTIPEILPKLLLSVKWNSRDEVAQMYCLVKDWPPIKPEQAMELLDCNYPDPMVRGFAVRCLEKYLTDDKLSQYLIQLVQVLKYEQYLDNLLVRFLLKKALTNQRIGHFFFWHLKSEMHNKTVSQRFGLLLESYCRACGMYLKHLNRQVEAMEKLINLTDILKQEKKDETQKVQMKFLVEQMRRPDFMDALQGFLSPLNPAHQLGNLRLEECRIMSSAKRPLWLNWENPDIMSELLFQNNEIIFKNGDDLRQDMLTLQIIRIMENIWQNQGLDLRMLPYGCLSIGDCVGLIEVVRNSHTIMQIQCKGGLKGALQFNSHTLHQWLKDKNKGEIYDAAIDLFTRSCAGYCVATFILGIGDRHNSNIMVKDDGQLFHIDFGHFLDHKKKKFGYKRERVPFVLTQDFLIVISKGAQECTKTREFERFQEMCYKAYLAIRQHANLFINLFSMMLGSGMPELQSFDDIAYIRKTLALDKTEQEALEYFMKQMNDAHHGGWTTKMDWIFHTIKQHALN
Put plainly: Enzyme binding assay (KINOMEscan, DiscoveRx), further kinases of Table A. Conditions: PIK3Cα_h. The procedure, abridged:
as §1

Series [2] has as its target T4, kinase enzymes (Homo sapiens, UniProt P42345).
T4 construct: purchased DiscoveRx Corporation, San Diego (contract service, KINOMEscan)
Described as above. Conditions: MTOR_h. A digest of the protocol:
as §1

Series [3] deals with T5, kinase enzymes (Homo sapiens, UniProt P48736).
T5 construct: purchased DiscoveRx Corporation, San Diego (contract service, KINOMEscan)
T5 sequence (P48736 whole entry): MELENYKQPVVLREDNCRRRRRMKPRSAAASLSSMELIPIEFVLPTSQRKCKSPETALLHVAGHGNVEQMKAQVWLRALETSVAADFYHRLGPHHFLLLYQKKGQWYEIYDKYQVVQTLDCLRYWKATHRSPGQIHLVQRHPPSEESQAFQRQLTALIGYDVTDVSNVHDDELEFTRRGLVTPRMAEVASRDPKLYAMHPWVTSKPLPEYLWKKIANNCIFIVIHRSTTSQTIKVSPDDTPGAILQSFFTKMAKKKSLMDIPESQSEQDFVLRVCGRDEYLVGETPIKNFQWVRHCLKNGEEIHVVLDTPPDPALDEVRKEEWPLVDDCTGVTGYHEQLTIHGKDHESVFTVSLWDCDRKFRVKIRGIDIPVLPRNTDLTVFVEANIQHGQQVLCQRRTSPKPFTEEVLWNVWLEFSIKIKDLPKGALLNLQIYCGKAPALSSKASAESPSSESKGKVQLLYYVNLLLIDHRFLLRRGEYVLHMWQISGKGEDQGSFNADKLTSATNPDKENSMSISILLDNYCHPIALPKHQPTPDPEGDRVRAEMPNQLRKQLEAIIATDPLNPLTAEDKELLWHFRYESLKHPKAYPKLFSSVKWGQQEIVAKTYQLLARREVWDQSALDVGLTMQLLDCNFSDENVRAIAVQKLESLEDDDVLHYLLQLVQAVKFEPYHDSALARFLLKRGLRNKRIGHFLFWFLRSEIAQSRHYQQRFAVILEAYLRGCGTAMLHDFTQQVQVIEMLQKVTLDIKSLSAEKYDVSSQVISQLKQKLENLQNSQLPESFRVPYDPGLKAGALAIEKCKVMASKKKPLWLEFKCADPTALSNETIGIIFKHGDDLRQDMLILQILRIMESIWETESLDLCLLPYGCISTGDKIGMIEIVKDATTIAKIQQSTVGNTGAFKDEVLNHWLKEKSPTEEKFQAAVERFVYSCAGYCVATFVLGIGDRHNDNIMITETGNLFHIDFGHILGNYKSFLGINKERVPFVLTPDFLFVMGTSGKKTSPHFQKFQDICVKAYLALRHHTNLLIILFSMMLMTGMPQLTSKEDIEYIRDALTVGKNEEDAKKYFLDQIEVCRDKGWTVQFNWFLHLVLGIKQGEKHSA
The series is described as above. Conditions: PIK3Cγ_h. A digest of the protocol:
as §1

The test system of series [4] is Akt phosphorylated at Ser473 in PC-3 cells. Briefly: Cellular assay: phosphorylation of Akt at Ser473 in PC-3 cells (MSD ELISA). It counts as cell-based. Conditions: PC-3 cells, 60 min compound incubation, MSD ELISA; read-out: IC50 pAkt_S473. The procedure, abridged: (§2)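 Phospho-Akt in whole-cell lysates is quantified by electrochemiluminescent immunoassay using phospho-site capture and total-Akt detection antibodies.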
On the technique in general: ELISA stands for enzyme-linked immunosorbent assay.

In series [5] the test system is Akt phosphorylated at Thr308 in PC-3 cells. Briefly: Cellular assay: phosphorylation of Akt at Thr308 in PC-3 cells (MSD ELISA). The class given is cell-based. Conditions: PC-3 cells, 60 min compound incubation, MSD ELISA; read-out: IC50 pAkt_Thr308. A digest of the protocol: as §2

T1 sequence (P42338 whole entry): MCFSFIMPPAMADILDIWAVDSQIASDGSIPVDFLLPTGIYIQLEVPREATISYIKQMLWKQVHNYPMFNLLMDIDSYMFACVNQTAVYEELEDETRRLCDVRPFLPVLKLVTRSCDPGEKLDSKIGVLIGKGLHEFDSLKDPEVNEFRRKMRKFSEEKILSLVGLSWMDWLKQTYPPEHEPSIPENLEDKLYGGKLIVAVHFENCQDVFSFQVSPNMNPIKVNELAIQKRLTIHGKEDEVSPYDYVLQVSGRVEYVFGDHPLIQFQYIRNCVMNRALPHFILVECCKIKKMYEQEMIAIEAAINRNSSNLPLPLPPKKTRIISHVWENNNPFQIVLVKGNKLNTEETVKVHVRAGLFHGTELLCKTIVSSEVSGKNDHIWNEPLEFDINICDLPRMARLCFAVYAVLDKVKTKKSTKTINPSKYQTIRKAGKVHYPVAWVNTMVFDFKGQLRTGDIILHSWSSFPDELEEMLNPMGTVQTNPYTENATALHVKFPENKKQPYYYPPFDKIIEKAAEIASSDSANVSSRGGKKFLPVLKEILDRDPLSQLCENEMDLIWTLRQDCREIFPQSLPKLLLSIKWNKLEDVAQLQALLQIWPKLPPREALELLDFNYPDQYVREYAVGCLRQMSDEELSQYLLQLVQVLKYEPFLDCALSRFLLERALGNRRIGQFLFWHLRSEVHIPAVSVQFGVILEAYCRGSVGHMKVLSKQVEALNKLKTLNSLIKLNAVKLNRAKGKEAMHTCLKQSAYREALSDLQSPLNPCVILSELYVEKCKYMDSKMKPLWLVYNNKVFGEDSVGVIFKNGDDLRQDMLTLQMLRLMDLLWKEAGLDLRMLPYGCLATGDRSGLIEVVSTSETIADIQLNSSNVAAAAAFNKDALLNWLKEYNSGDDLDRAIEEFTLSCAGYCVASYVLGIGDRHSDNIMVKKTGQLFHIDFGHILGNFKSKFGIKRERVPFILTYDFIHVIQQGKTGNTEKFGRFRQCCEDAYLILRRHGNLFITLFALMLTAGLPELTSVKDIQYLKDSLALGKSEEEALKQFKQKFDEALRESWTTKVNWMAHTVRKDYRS

For the molecule `CC1CN(C(=O)c2cc(C3CCCN3c3cc(F)cc(F)c3)c3nc(N4CCOCC4)cnc3c2)CC(C)N1` (centres unmarked) [Compound 39], the melting point is 80 °C.
Take `[2H]C([2H])(O)C([2H])([2H])NC(=O)c1cc(C(C)Nc2cccc(F)c2)c2nc(N3CCOCC3)cnc2c1` (single isomer, unassigned) [Compound 408a]: the melting point was found to be 127 °C. Further, on PI3Kβ, the Kd was 0.003 µM. This molecule returned a Kd on PI3Kδ of 0.331 µM. On kinase enzymes [1], this molecule came in with a Kd of 1.44 µM. The molecule also displayed a Kd at kinase enzymes [2] of 26.3 µM. The same molecule had a Kd on kinase enzymes [3] of 4.27 µM.
The molecule `CC(Nc1cc(F)cc(F)c1)c1cc(CNCC(F)(F)F)cc2ncc(N3CCOCC3)nc12` (single isomer, unassigned) (as salt: HCl) (hydrate or solvate) [Compound 163] registered a melting point of 239 °C.
Consider `CC(Nc1cc(F)cc(F)c1)c1cc(CN2CCO[C@H](CO)C2)cc2ncc(N3CCOCC3)nc12` (single isomer, unassigned) (as salt: HCl) [Compound 194], for which the melting point turned out to be 80 °C.
Same read-out and setting: as for `CC(Nc1cc(F)cc(F)c1)c1cc(CN2CCO[C@@H](CO)C2)cc2ncc(N3CCOCC3)nc12` (single isomer, unassigned) (as salt: HCl) [Compound 193], the figure is 80 °C; as for `C[C@@H](Nc1cc(F)cc(F)c1)c1cc(C(=O)NCCN(C)C)cc2ncc(N3CCOCC3)nc12` (as salt: sulfuric acid salt) [Compound 184b], 270 °C.
Molecule `CC(Nc1cc(F)cc(F)c1)c1cc(C(=O)NC[C@H](C)O)cc2ncc(N3CCOCC3)nc12` (single isomer, unassigned) [Compound 246b] displayed a melting point of 75 °C. Further, at PI3Kβ, the Kd turned out to be 16.6 µM. Moreover, the Kd on PI3Kδ was more than 30.2 µM. Besides, the Kd on kinase enzymes [1] is more than 30.2 µM. The molecule also returned a Kd at kinase enzymes [2] of more than 30.2 µM. At kinase enzymes [3], the Kd stood at 6.17 µM.
`COC(=O)c1cc(C(C)Nc2cc(F)c(F)c(F)c2)c2nc(N3CCOCC3)cnc2c1` (centres unmarked) [Compound 266] returned a melting point of 220 °C.
The molecule `CC(Nc1ccc(F)c(F)c1)c1cc(C(=O)NC2CCNC2)cc2ncc(N3CCOCC3)nc12` (centres unmarked) [Compound 325a] came in with a melting point of 144 °C. Moreover, the Kd on PI3Kβ is 1.32 µM. On PI3Kδ, binding was characterised by a dissociation constant (Kd) of 11.5 µM. At kinase enzymes [1], the Kd amounted to 10.7 µM. At kinase enzymes [2], this molecule yielded a Kd of more than 30.2 µM. The same molecule gave a Kd at kinase enzymes [3] of 14.1 µM.
In turn, `COC1CN(Cc2cc(C(C)Nc3cc(F)cc(F)c3)c3nc(N4CCOCC4)cnc3c2)CC1OC` (single isomer, unassigned) (as salt: hydrochloride) [Compound 205] had a melting point of 80 °C.
On the same count and under the same terms, the same measure for `C[C@@H](Nc1cc(F)cc(F)c1)c1cc(C(=O)NCCN(C)C)cc2ncc(N3CCOCC3)nc12` (as salt: sulfonic acid salt) [Compound 184c]: 74 °C.
On to `CC(Nc1cc(F)cc(F)c1)c1cc(C(=O)NC[C@@H](C)O)cc2ncc(N3CCOCC3)nc12` (single isomer, unassigned) [Compound 202], for which the Kd was 3.95 µM at PI3Kβ; more than 30.2 µM at PI3Kδ; more than 30.2 µM at kinase enzymes [1]; 6.03 µM on kinase enzymes [2]; 3.32 µM at kinase enzymes [3]. Further, the IC50 in series [4] and in series [5] was more than 0.513 µM each time.
With `Cc1cccc(N(C)C(C)c2cc(C(=O)N(C)C)cc3ncc(N4CCOCC4)nc23)c1` (single isomer, unassigned) [Compound 128], the Kd on PI3Kβ was 1.12 µM; on PI3Kδ it was 15.1 µM; at kinase enzymes [1], 4.9 µM; on kinase enzymes [2], 21.4 µM; on kinase enzymes [3] it was 12.3 µM. The IC50 in series [4] and in series [5] was more than 0.513 µM in each case.
Molecule `C[C@@H](Nc1cc(F)cc(F)c1)c1cc(C(=O)NCCN(C)C)cc2ncc(N3CCOCC3)nc12` (as salt: HCl) [Compound 184a] showed a melting point of 80 °C.
